Measured values published in PMC11876671, “Investigating blood–brain barrier penetration and neurotoxicity of natural products for central nervous system drug development” (Scientific Reports, 2025).
Structures can show the parent of a compound that is named as a salt.

Experiment: in vitro
Conditions: PAMPA, PAMPA-BBB Pe

Row | Structure (SMILES) | Papp [×10⁻⁶ cm/s]
1 | CC(C)(O)CC[C@@H](O)[C@](C)(O)[C@H]1CC[C@@]2(O)C3=CC(=O)[C@@H]4C[C@@H](O)[C@@H](O)C[C@]4(C)[C@H]3CC[C@]12C [COMMISTERONE] | 14
2 | COc1ccc2[nH]c3c(c2c1)CCNC3C (centres unmarked) [ADRENOGLOMERULOTROPIN] | 23
3 | COc1cc2c(cc1OC)[C@@]13CCN4CC5=CCO[C@H]6CC(=O)N2[C@H]1[C@H]6[C@H]5C[C@H]43 [BRUCINUM] | 16

Same assay, conditions: PAMPA, PAMPA-BBB Pe(10^-6 cm/sec)

Row | Structure (SMILES) | Papp [×10⁻⁶ cm/s]
4 | C[C@]12C=CC(=O)C=C1[C@@H](F)C[C@@H]1[C@@H]2[C@@H](O)C[C@@]2(C)[C@H]1CC[C@]2(O)C(=O)CO [FLUPREDNISOLONE] | 1.9
5 | C/C(=C\C(=O)OCCCCCCCCC(=O)O)C[C@@H]1OC[C@H](C[C@@H]2O[C@H]2[C@@H](C)[C@H](C)O)[C@@H](O)[C@H]1O [MUPIROCIN] | < 1
6 | COc1cc2c(c(OC)c1OC)-c1ccc(OC)c(=O)cc1[C@@H](NC(C)=O)CC2 [COLCHCINE] | < 1
7 | O=C(O)c1cccc(C(=O)O)n1 [D[…]] | < 1
8 | COc1ccc(C[C@H](N)C(=O)N[C@@H]2[C@@H](CO)OC(n3cnc4c(N(C)C)ncnc43)[C@@H]2O)cc1 (some centres unmarked) [PUROMYCIN MONOHYDROCHLORIDE] | < 1
9 | O=c1ccc2ccc(O)cc2o1 [UMBELLIFERONE] | < 1

Same assay, conditions: PAMPA, PAMPA-BBB Pe(10^-6 cm/sec), Table S3: compounds exhibiting low PAMPA-BBB permeability

Row | Structure (SMILES) | Papp [×10⁻⁶ cm/s]
10 | C[N+]1([O-])CCC[C@@H]1c1cccnc1 (some centres unmarked) [NICOTINE N'-OXIDE] | 2.8
11 | CO[C@H]1[C@@H](O)[C@@H](C)O[C@H](O[C@H]2[C@H](Oc3cccc4c(O)c5c(=O)oc6ccc(C)c7c(=O)oc(c34)c5c67)O[C@H](C)[C@H](O)[C@@H]2O)[C@@H]1O [CHARTREUSIN] | 4
12 | CC1=C[C@H]2[C@@]3(O)[C@H](C)[C@@H](O)[C@]4(O)[C@H]([C@@H]3C=C(CO)C[C@]2(O)C1=O)C4(C)C [PHORBOL] | < 1
13 | O=c1cc(-c2ccc(O)cc2)oc2cc(O[C@H]3OC(CO)C(O)C(O)C3O)cc(O)c12 (some centres unmarked) [COSMOSIOSIDE] | 1.6
14 | O=c1c(O)c(-c2ccccc2O)oc2cc(O)cc(O)c12 [DATISCETIN] | 2.2
15 | CCCCC[C@H](O)/C=C/C1=C(CCCCCCC(=O)O)C(=O)CC1 [PROSTAGLANDIN B1] | < 1
16 | COC(=O)C1=CO[C@@H](O[C@@H]2O[C@H](CO)[C@@H](O)[C@H](O)[C@H]2O)[C@H]2[C@@H]1C(=O)C[C@@H]2C [VERBENALIN] | < 1
17 | O=C(O[C@@H]1Cc2c(O)cc(O)cc2O[C@@H]1c1ccc(O)c(O)c1)c1cc(O)c(O)c(O)c1 [EPICATECHIN GALLATE] | < 1
18 | CC1=C(/C=C/C(C)=C/C=C/C(C)=C/C=C/C=C(C)/C=C/C=C(\C)C=O)C(C)(C)CCC1 [APOCAROTENAL] | < 1
19 | CN1C(=O)CC[C@H]1c1cccnc1 [COTININE] | < 1
20 | COC1=C2C[C@@H](C)C[C@H](OC)[C@H](O)[C@@H](C)/C=C(\C)[C@H](OC(N)=O)[C@@H](OC)/C=C\C=C(/C)C(=O)NC(=CC1=O)C2=O [GELDANAMYCIN] | < 1
21 | O=c1c2cc(O)c(O)cc2oc2cc(O)c([C@@H]3O[C@H](CO)[C@@H](O)[C@H](O)[C@H]3O)c(O)c12 [MANGIFERIN] | < 1
22 | CC(=O)c1ccc(O[C@@H]2O[C@H](CO)[C@@H](O)[C@H](O)[C@H]2O)cc1 [PICEIN] | < 1
23 | Nc1nc2c(ncn2[C@@H]2O[C@H](CO)[C@@H](O)[C@@H]2O)c(=O)[nH]1 [ARAGUANOSINE] | < 1
24 | O=C1c2c(O)cc(O)cc2O[C@H](c2cc(O)c(O)c(O)c2)[C@H]1O [DIHYDROMYRICETIN] | < 1
25 | OC[C@H]1O[C@@H](Oc2ccc(O)cc2)[C@H](O)[C@@H](O)[C@@H]1O [ARBUTIN] | < 1
26 | O=C(/C=C/c1ccc(O)c2c1[C@H](C(=O)O)[C@@H](c1ccc(O)c(O)c1)O2)O[C@H](Cc1ccc(O)c(O)c1)C(=O)O [LITHOSPERMIC ACID A] | < 1
27 | CC(C=O)Cc1ccc(C(C)C)cc1 (centres unmarked) [CYCLAMEN ALDEHYDE] | 8.2
28 | CNCCc1c[nH]c2ccc(O)cc12 [N-METHYLSEROTONIN] | 7.1
29 | C[n+]1cc2c3c(ccc2c2ccc4cc5c(cc4c21)OCO5)OCO3 [SANGUINARIUM CHLORIDE] | < 1
30 | O=C(/C=C/c1ccc(O)c(O)c1)c1ccc(O)cc1O [BUTEIN] | < 1
31 | CC[C@H]1O[C@]2(CC[C@@H]1C)C[C@@H]1C[C@@H](CC=C(C)C[C@@H](C)C=CC=C3CO[C@@H]4[C@H](O)C(C)=C[C@@H](C(=O)O1)[C@]34O)O2 [MILBEMYCIN A4] | 9.9
32 | CC(=O)OCC1=C(C(=O)O)N2C(=O)C(N)C2SC1 (centres unmarked) [7-Aminocephalosporanic acid] | < 1
33 | COc1ccc([C@@H]2CC(=O)c3c(O)cc(O[C@@H]4O[C@H](CO)[C@@H](O)[C@H](O)[C@H]4O[C@@H]4O[C@@H](C)[C@H](O)[C@@H](O)[C@H]4O)cc3O2)cc1 [PONCIRIN] | < 1

Row | Structure (SMILES) | Papp [×10⁻⁶ cm/s]
34 | CC1(C)CCC2=C(O1)c1ccccc1C(=O)C2=O [.BETA.-LAPACHONE] | < 1
35 | O=C(OC[C@H]1O[C@@H](OC(=O)c2cc(O)c(O)c(O)c2)[C@H](OC(=O)c2cc(O)c(O)c(O)c2)[C@@H](OC(=O)c2cc(O)c(O)c(O)c2)[C@@H]1OC(=O)c1cc(O)c(O)c(O)c1)c1cc(O)c(O)c(O)c1 [PENTAGALLOYLGLUCOSE] | 3.2
36 | C[C@@H]1Cc2c(Cl)cc(C(=O)N[C@@H](Cc3ccccc3)C(=O)O)c(O)c2C(=O)O1 [[…]] | 1.6
37 | CC(C)Nc1nc(N)nc(Cl)n1 [DEETHYLATRAZINE] | 6.8
38 | COc1ccc(-c2coc3cc(O[C@@H]4O[C@H](CO)[C@@H](O)[C@H](O)[C@H]4O)ccc3c2=O)cc1 [ONONOSIDE] | < 1
39 | Cc1cccc(C(=O)O)c1O [HYDROXYTOLUIC ACID] | < 1
40 | CC1=C(O)C(=O)OC1C (centres unmarked) [SOTOLONE] | < 1
41 | COc1cc2c(CCNC(C)=O)c[nH]c2cc1O [6-HYDROXYMELATONIN] | 2.8
42 | O=C(C[C@H]1NCCC[C@@H]1O)Cn1cnc2ccccc2c1=O [FEBRIFUGINE] | < 1
43 | COC(=O)C1=CO[C@@H](O)[C@@H]2C(CO)=CC[C@H]12 [GENIPIN] | < 1
44 | Cc1cc(=O)oc2cc(O)ccc12 [HYMECROMONE] | 9.9
45 | CNCCc1ccc(O)c(O)c1 [DEOXYEPINEPHRINE HYDROCHLORIDE] | < 1
46 | C=C/C(C)=C/C/C=C(\C)CCC=C(C)C | < 1
47 | O=C1C=C2C(=CCOC2O)O1 (centres unmarked) [PATULIN] | < 1
48 | O=C(O)/C=C/c1ccccc1 [CINNAMIC ACID] | < 1
49 | O=C(O)c1cccnc1C(=O)O [QUINOLINIC ACID] | < 1
50 | COc1ccc(-c2cc(=O)c3c(O)c(OC)c(O[C@@H]4O[C@H](CO[C@@H]5O[C@@H](C)[C@H](O)[C@@H](O)[C@H]5O)[C@@H](O)[C@H](O)[C@H]4O)cc3o2)cc1 [PECTOLINARIN] | < 1
51 | O=c1ccn([C@H]2C[C@H](O)[C@@H](CO)O2)c(=O)[nH]1 [DEOXYURIDINE] | < 1
52 | C=CC(C)=CCC=C(C)C [CIS BETA OCIMENE] | 3.9
53 | COC(=O)C[C@](O)(CCC(C)(C)O)C(=O)O[C@@H]1C(OC)=C[C@]23CCCN2CCc2cc4c(cc2[C@H]13)OCO4 [HARRINGTONINE] | < 1
54 | O=c1ccn([C@@H]2O[C@H](COP(=O)(O)O)[C@@H](O)[C@H]2O)c(=O)[nH]1 [URIDINE PHOSPHATE] | < 1
55 | N[C@@H](Cc1c[nH]c2ccc(O)cc12)C(=O)O [CINCOFARM] | < 1
56 | CCC/C=C/C/C=C/C=C/C=N/NN=O [TRIACSIN C] | 8.1

Same assay, conditions: PAMPA, PAMPA-BBB Pe, Table S2: compounds exhibiting moderate to high PAMPA-BBB permeability

Row | Structure (SMILES) | Papp [×10⁻⁶ cm/s]
57 | CN1CC[C@]23c4ccccc4N[C@H]1[C@]21CCN(C)[C@H]3Nc2ccccc21 [[…]] | 23
58 | C=C(C)c1cc2cc(C(C)=O)c(O)cc2o1 [EUPARIN] | 125
59 | COc1cc(OC)c2ccc(=O)oc2c1 [LIMETTIN] | 105
60 | CC1=C[C@H](O)CC(C)(C)[C@H]1/C=C/C(C)=C/C=C/C(C)=C/C=C/C=C(C)/C=C/C=C(C)/C=C/C1=C(C)C[C@@H](O)CC1(C)C [XANTOFYL] | 28
61 | O=Cc1cc2ccccc2o1 [2-FORMYLBENZOFURAN] | 154
62 | C=C1CC[C@H](O)C/C1=C/C=C1\CCC[C@]2(C)[C@@H]([C@H](C)CCC(O)C(C)(C)O)CC[C@@H]12 (some centres unmarked) [24,25-DIHYDROXYVITAMIN D3] | 78
63 | COc1cc(-c2cc(=O)c3c(O)cc(O)cc3o2)ccc1O [CHRYSERIOL] | 179
64 | COC1=CC(=O)O[C@@H](/C=C/c2ccccc2)C1 [KAWAIN] | 114
65 | O=C1NC(=O)C(c2c[nH]c3ccccc23)=C1c1c[nH]c2ccccc12 [BISINDOLYLMALEIMIDE] | > 654
66 | COc1ccc2[nH]c3c(c2c1)CCN=C3C [6-METHOXYHARMALANE] | 49
67 | CC(C)=CCOc1c2occc2cc2ccc(=O)oc12 [PENTOSALEN] | 195
68 | COc1ccc(-c2cc(=O)c3c(O)cc(O)c(-c4cc(-c5cc(=O)c6c(O)cc(OC)cc6o5)ccc4OC)c3o2)cc1 [SCIADOPITYSIN] | 20
69 | COc1ccc(/C=C/c2cc(OC)cc(=O)o2)cc1 [YANGONIN] | 156
70 | CC(C)=CCCC(C)=CC(=O)O [NEROLIC ACID] | 17
71 | CN1CC(CO)=C[C@H]2c3cccc4[nH]cc(c34)C[C@H]21 [ELYMOCLAVINE] | 17
72 | CC(=O)c1c(O)cccc1O [2-ACETYLRESORCINOL] | 45
73 | COC1=CC(=O)O[C@@H](CCc2ccccc2)C1 [DIHYDROKAWAIN] | 82
74 | COc1ccc(-c2oc3cc(O[C@@H]4O[C@H](CO)[C@@H](O)[C@H](O)[C@H]4O)c(OC)c(O)c3c(=O)c2OC)cc1O [CENTAUREIN] | 38
75 | COc1cccc(OC)c1C(=O)O [2,6-DIMETHOXYBENZOIC ACID] | 24
76 | COc1ccc(COC(C)=O)cc1 [P-METHOXYBENZYL ACETATE] | 172
77 | COc1cc(CCC(C)=O)ccc1O [ZINGERONE] | 23
78 | COc1ccc2ccc(=O)oc2c1 [7-METHOXYCOUMARIN] | 77
79 | C=CCc1ccc(O)c(OC)c1 [EUGENOL] | 116
80 | C=C[C@H]1CN2CC[C@@]3(C(=O)Nc4ccccc43)[C@@H]2C[C@@H]1/C(=C\OC)C(=O)OC [ISOCORYNOXEINE] | 37
